We go through 17 compounds from publication PMC10907358, “Identification of oleic acid as an endogenous ligand of GPR3” (Cell Research, 2024).

The term pEC50 denotes the negative decadic logarithm of the EC50, by convention in mol/L. By pIC50 is commonly meant the IC50 on a negative log10 scale, so that one unit is a factor of ten.

pEC50, pIC50: −log10 of the molar value. “Also recorded” adds a separate entry of the source.

Assay [1] addresses T1, GPR3 (Homo sapiens, UniProt P46089).
T1 construct: expressed in transfected cells
In words: GloSensor cAMP assay in GPR3 stably expressing AD293 cell line (agonist mode). Conditions: for maximum response: Table S2, relative cAMP level, at 500 μM (FA 12:0, 16:1, 18:0, OEA 18:1, OLM 18:1), 450 μM (FA 18:1), 400 μM (FA 16:0), 300 μM (FA 22:0, 18:2), 100 μM (FAME 18:0, FAEE 18:0, lysophospholipids), 3 μM (LTB4); for pEC50: cAMP induction; for pEC50 / cAMP induction activity (in words): GPR3 stably expressing AD293. The format is cell-based. As to the method: (§1) The GloSensor cAMP assay was performed according to the instructions of Promega. AD293 cells were split into 6-well plate (300,000 cells/mL) and then transfected with the pGloSensor™-22F cAMP plasmid and pcDNA3-GPR3 plasmid by Lipofectamine 2000, at a ratio of 2:1 (μL:μg). 24 h after transfection, cells were split into 96-well plate for another 24 h incubation. After removal of cell medium, 90 μL of 3% v/v (the GloSensor cAMP reagent vs serum-free medium) substrate was added into each well. After 2 h incubation at RT, background measurements were taken, and then 10 μL 10× stock compounds were added for the second measurements of ligand activation via EnVision 2105 (PerkinElmer). Relative cAMP level was calculated by the cAMP level after addition of ligand divided by the cAMP level before addition of ligand (basal level). Stock FAs (i.e., 10–50 mM) were solubilized in DMSO, then diluted in cell culture buffer to designated concentrations and sonicated to ensure that they were evenly distributed in the buffer before being added to cells.
AD293 cells were split into 6-well plate (300,000 cells/mL), and then transfected with the pGloSensor™-22F cAMP plasmid and the pcDNA6-GPR3-3× FLAG plasmid (WT receptor or the mutants, F120A^3.36, W260A^6.48, L283F^7.39, A201W^5.46, Y280A^7.36, H96A^2.60 and H96A^2.60/Y280A^7.36) by Lipofectamine 2000 at a ratio of 2:1 (μL:μg). Geneticin (2 mg/mL) and blasticidin (20 μg/mL) were used to select colonies that stably express both GPR3 and GloSensor 22F. The cell culture medium containing antibiotics was changed every 2 days till well-separated colonies appeared. Then individual single colony was picked by a small piece of sterilized filter paper soaked with trypsin and separately cultured in a single well of 24-well plate. At least 24 candidate colonies were selected for each mutant and WT. After several days of culture, each colony was triplicated. One of the triplicates was used for western blot analysis, another for the GloSensor cAMP assay, and the remaining one was stored for staining. The colonies with top scores in both expression (western blot) and functional assay were selected as the representative colonies for each mutant or WT for further analysis.
(Changes in cAMP serve as a functional read-out for many G protein-coupled receptors.)

A further assay concerns the target T2, GPR6 (Homo sapiens, UniProt P46095).
T2 construct: FLAG; expressed in transfected cells
In words: GloSensor cAMP assay in GPR6 stably expressing AD293 cell line. The format is cell-based. Conditions: lipid concentration 300 μM.

The subject of assay [2] is Gs/cAMP/PKA signaling in iBAT. In words: Ex vivo iBAT of WT mice, p-PKA substrate immunoblot. It counts as cell-based, mouse. Particulars: WT iBAT at 4 °C; lipid 1 mM (OA also 5 mM), up to 4 h. As to the method: iBAT was isolated from C57BL/6N mice at 4-6 weeks old and cut into 10 mg pieces. […] Another group of iBAT pieces were incubated in DMEM medium at 4 °C, and treated with different doses of OA (0 mM, 1 mM, 5 mM) for 4 h. OA (Sigma, O1008) was dissolved in serum-free DMEM (Gibco, high glucose, 12100046) by using an ultrasonic cleaner at 40 °C for 10 min.

Assay [3] addresses T1, GPR3. The assay is described as follows: Inhibition of OA-induced GPR3 activation, GloSensor cAMP assay in GPR3 stably expressing AD293 cell line. The format is cell-based. Conditions: OA concentration fixed at 300 μM; read-out: IC50 of OA-induced receptor activation. As to the method: as §1
AD293 cells were split into 6-well plate (300,000 cells/mL), and then transfected with the pGloSensor™-22F cAMP plasmid and the pcDNA6-GPR3-3× FLAG plasmid (WT receptor or the mutants, F120A^3.36, W260A^6.48, L283F^7.39, A201W^5.46, Y280A^7.36, H96A^2.60 and H96A^2.60/Y280A^7.36) by Lipofectamine 2000 at a ratio of 2:1 (μL:μg). […]

For the next assay, the system named is GPR120. On the set-up: method as in PMID 36862765. Conditions: cited from earlier work.

T1 sequence (P46089 whole entry): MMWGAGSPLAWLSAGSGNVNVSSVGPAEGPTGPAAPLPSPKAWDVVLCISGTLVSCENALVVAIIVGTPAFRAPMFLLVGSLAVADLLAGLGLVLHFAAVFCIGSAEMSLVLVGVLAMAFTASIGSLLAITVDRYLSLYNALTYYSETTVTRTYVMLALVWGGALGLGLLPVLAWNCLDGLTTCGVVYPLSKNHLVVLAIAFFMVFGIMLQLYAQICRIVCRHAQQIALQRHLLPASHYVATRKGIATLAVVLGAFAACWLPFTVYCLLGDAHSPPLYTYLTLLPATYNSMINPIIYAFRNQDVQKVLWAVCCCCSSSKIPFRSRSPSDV
T2 sequence (P46095 whole entry, species assumed): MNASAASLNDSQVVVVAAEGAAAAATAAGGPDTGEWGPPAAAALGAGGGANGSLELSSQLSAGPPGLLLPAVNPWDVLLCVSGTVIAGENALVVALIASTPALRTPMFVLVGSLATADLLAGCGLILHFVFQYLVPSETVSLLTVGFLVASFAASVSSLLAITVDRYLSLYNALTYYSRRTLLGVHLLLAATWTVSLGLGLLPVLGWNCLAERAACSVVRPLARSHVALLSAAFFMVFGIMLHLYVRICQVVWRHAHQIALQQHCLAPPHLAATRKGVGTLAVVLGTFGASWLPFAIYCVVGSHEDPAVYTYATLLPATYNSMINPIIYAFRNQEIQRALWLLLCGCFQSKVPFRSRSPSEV

As to `CCCCCC/C=C\CCCCCCCC(=O)O` [PML, palmitoleic acid], at GPR3 [1], the maximum response is given as 61.8 and the pEC50 was 3.48. Further, the “Emax / receptor activation compared to PAL” value on GPR3 [1] (cAMP assay) was “half of the Emax of PAL; also recorded: substantially decreased receptor activation compared to PAL”. Besides, the “GPR6 activation (in words)” value on GPR6 is reported as “strongly activated GPR6”.

LPA 16:0: at GPR3 [1], the “cAMP induction activity (in words)” value is on record as “none of the lysophospholipids that we tested exhibited cAMP induction activity” and the maximum response was found to be 0.5.

Turning to `CCCCCCCCCCCCCCCCCC(=O)OC` [MES, methyl stearate], on GPR3 [1], the “cAMP induction activity (in words)” value is “completely abolished receptor activation; also recorded: failed to activate the receptor” and the maximum response worked out at 0.9.

As to `CCCCCCCCCCCCCCCCCC(=O)O` [STE, stearic acid], in assay [2], the “Gs/cAMP/PKA signaling (phosphorylation of PKA substrates)” value is listed as “neither STE nor LIN induced Gs/cAMP/PKA signaling”. At GPR3 [1], the “cAMP induction activity (in words)” value is “weak activity”, the maximum response worked out at 44.8 and the pEC50 is 3.44. Besides, the “Emax compared to Emax of OA” value on GPR3 [1] (cAMP assay) is reported as “about 1/3”.

As for `CCCCCCCCCCCCCCCCCCCCCC(=O)O` [BEH, behenic acid], on GPR3 [1], the “cAMP induction activity (in words)” value is recorded as “no activity at all; also recorded: failed to activate the receptor” and the maximum response was 1.0.

In the case of `CC(C)Oc1cc(Cl)ccc1CNc1cc(-c2ccccc2)nc2ncnn12` [AF64394], the pIC50 at GPR3 [3] was 6.77.

For the compound `CCCCCCCCCCCCC/C=C/[C@@H](O)[C@@H](N)COP(=O)(O)O` [S1P, sphingosine-1-phosphate], at GPR3 [1], the “cAMP induction activity (in words)” value is recorded as “none of the lysophospholipids that we tested exhibited cAMP induction activity” and the maximum response was 0.6.

On to `CCCCCCCCCCCCCCCCCC(=O)OCC` [ETS, ethyl stearate], for which, at GPR3 [1], the “cAMP induction activity (in words)” value is “completely abolished receptor activation; also recorded: failed to activate the receptor” and the maximum response is 0.6.

Regarding LPC 14:0, at GPR3 [1], the “cAMP induction activity (in words)” value is “none of the lysophospholipids that we tested exhibited cAMP induction activity” and the maximum response is listed as 1.8.

Consider `c1ccc2c(c1)[I+]c1ccccc1-2` [DPI, diphenyleneiodonium chloride], for which, at GPR3 [1] (cAMP assay), the “Emax compared to Emax of OA” value was “higher Emax”.

In the case of `CCCCC/C=C\C/C=C\CCCCCCCC(=O)O` [LIN, Linoleic acid], in assay [2], the “Gs/cAMP/PKA signaling (phosphorylation of PKA substrates)” value is “neither STE nor LIN induced Gs/cAMP/PKA signaling”. At GPR3 [1], the “cAMP induction activity (in words)” value is reported as “failed to activate the receptor; also recorded: almost no activity” and the maximum response is recorded as 2.9. The negative logarithm of the EC50 (pEC50) with GPR120 is 4.24.

For `CCCCCCCCCCCC(=O)O` [LAU, lauric acid], at GPR3 [1], the “cAMP induction activity (in words)” value was “fully activate GPR3”, the maximum response is 204.5 and the negative logarithm of the EC50 (pEC50) is 3.49. Besides, the “Emax compared to Emax of OA” value at GPR3 [1] (cAMP assay) is reported as “higher Emax than OA”. In addition, the “GPR6 activation (in words)” value at GPR6 is listed as “strongly activated GPR6”.

With LPA 18:1, on GPR3 [1], the “cAMP induction activity (in words)” value is recorded as “none of the lysophospholipids that we tested exhibited cAMP induction activity” and the maximum response amounted to 0.5.

Regarding `CCCCCCCC/C=C\CCCCCCCC(=O)NCCO` [OEA, oleoylethanolamide], at GPR3 [1], the maximum response came out at 60.9 and the pEC50 is 3.47. In addition, on GPR3 [1] (cAMP assay), the “Emax compared to Emax of OA” value was “half of the Emax of OA”.

With `CCCCC/C=C\C[C@@H](O)/C=C/C=C/C=C\[C@@H](O)CCCC(=O)O` [LTB4, leukotriene B4], at GPR3 [1], the “cAMP induction activity (in words)” value is “failed to activate GPR3” and the maximum response was 0.8.

Turning to `CCCCCCCCCCCCCCCC(=O)O` [PAL, palmitic acid], on GPR3 [1], the maximum response is given as 118.7 and the negative logarithm of the EC50 (pEC50) is 3.51. For the same compound, the “Emax compared to Emax of OA” value at GPR3 [1] (cAMP assay) is on record as “slightly lower Emax than OA”.

Consider `CCCCCCCC/C=C\CCCCCCCC(N)=O` [OLM, Oleamide], for which, on GPR3 [1], the maximum response worked out at 75.1 and the negative-log EC50 (pEC50) was 3.48. Moreover, the “Emax compared to Emax of OA” value on GPR3 [1] (cAMP assay) is listed as “half of the Emax of OA”.
